Drawing on US11999727B2 (Tango Therapeutics, Inc., priority 2020, dated 2024), this text covers IC50 and MTAP intact/deleted ratio for 18 compounds.

Experiment [1] has as its system HAP1 MTAP-intact cell line. In words: SDMA in-cell western assay, HAP1 MTAP-intact. It is filed as cell-based. The following applies: Homo sapiens, HAP1, SDMA in-cell western, HAP1 MTAP-intact; read-out: MTAP HAP1 intact IC50. Put shortly: (§1)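 Isogenic HAP1 pair: the MTAP-intact line expresses endogenous MTAP, and the deleted line is MTAP-null. Symmetric dimethylarginine was detected by in-cell western and IC50 values derived for each line.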

Experiment [2] deals with HAP1 MTAP-deleted cell line. As to the kind of experiment: Viability assay, MTAP-deleted cell line. It counts as cell-based. Conditions: Homo sapiens, HAP1, viability assay, MTAP-deleted cell line; read-out: HAP1 MTAP deleted viability. From the text:
Table 1 additionally indicates IC50 values in a viability assay for the MTAP-deleted cell line (column 10), indicating the effect of treatment with compound on cell survival.

Experiment [3] has as its system HAP1 MTAP-deleted cell line. As to the kind of experiment: SDMA in-cell western assay, HAP1 MTAP-deleted. It is filed as cell-based. The following applies: for IC50: Homo sapiens, HAP1, SDMA in-cell western, HAP1 MTAP-deleted, read-out: HAP1 MTAP deleted IC50; for MTAP intact/deleted ratio: IC50 ratio HAP1 MTAP-intact vs HAP1 MTAP-deleted, SDMA in-cell western. An outline of the steps: as §1

For experiment [4], the target named is T1, PRMT5 (Homo sapiens, UniProt O14744).
T1 construct: purchased Viva (custom protein)
In words: PRMT5 biochemical IC50 assay with no cofactor. Conditions: PRMT5, no cofactor; read-out: No Cofactor/rel IC50. From the text: Table 1 indicates IC50 values (μM) against PRMT5 for exemplary compounds in the presence of SAM as cofactor, with no cofactor, and with MTA as cofactor, respectively (columns 4-6). […] Ki values can be calculated from the IC50 values as described in the Examples section. As detailed in the Examples section, for the assay performed in the presence of SAM, IC50=Ki×1.5 (Ki=IC50/1.5).

In experiment [5] the target is T1, PRMT5. In words: PRMT5 biochemical IC50 assay with SAM as cofactor. Conditions: PRMT5, SAM as cofactor; read-out: SAM IC50.
The target of experiment [6] is T1, PRMT5. In words: PRMT5 biochemical IC50 assay with MTA as cofactor. The following applies: PRMT5, MTA as cofactor; read-out: MTA IC50.

The structures appear in SMILES notation.

T1 sequence (O14744 whole entry): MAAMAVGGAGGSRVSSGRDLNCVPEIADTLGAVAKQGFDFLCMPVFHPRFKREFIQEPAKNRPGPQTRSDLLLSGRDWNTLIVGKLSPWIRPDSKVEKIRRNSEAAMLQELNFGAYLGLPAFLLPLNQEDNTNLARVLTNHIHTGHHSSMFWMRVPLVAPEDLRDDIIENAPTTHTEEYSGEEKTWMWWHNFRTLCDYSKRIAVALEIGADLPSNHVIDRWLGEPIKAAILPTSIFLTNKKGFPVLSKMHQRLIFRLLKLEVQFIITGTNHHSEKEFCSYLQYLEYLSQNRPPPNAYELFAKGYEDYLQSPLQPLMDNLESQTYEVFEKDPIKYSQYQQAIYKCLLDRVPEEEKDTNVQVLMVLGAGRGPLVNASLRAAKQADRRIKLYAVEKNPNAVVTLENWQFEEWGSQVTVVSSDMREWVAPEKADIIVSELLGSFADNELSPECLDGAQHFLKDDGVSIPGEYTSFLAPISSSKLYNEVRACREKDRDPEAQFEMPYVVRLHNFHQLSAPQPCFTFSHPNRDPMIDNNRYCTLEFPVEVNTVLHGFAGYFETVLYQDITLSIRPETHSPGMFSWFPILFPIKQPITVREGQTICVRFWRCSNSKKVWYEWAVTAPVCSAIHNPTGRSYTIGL
T1 sequence (Q9BQA1 whole entry partner): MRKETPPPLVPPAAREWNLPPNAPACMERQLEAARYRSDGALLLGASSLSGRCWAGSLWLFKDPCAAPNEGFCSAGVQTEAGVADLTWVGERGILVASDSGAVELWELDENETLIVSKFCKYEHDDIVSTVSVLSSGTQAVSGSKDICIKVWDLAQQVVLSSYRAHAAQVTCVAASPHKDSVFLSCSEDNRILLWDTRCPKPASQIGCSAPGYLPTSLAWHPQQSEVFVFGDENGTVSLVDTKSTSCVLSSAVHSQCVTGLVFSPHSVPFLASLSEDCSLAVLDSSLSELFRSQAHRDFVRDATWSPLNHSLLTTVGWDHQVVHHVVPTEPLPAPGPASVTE

Consider `Cc1nc2cc([C@@H]3CC[C@H](C)CN3C(=O)C(=O)Nc3cnc(N)c(C)c3)ccc2o1` (single isomer, unassigned) [Compound 1170], for which the IC50 is 100 to 1000 nM in experiment [1]; below 1000 nM in experiment [2]; below 100 nM in experiment [3]; below 50 nM at PRMT5 [4]; 50 to 500 nM at PRMT5 [5]; below 50 nM at PRMT5 [6]. In addition, the MTAP intact/deleted ratio result in experiment [3] is on record as “A (an IC50 ratio greater than or equal to 10 fold)”.

Turning to `CCc1cc(NC(=O)C(=O)N2[C@@H](C)CCC[C@H]2c2ccc3sc(C4CCN(C)CC4)nc3c2)cnc1N` (single isomer, unassigned) [Compound 1173], the IC50 is below 100 nM in experiment [1]; below 1000 nM in experiment [2]; below 100 nM in experiment [3]; below 50 nM on PRMT5 [4]; 50 to 500 nM at PRMT5 [5]; below 50 nM on PRMT5 [6]. Also, in experiment [3], the MTAP intact/deleted ratio result is listed as “A (an IC50 ratio greater than or equal to 10 fold)”.

Turning to `COCCc1nc2cc([C@H]3CC[C@H](C)CN3C(=O)C(=O)Nc3cnc(N)c(C4CC4)c3)ccc2s1` (single isomer, unassigned) [Compound 1176], the IC50 in experiment [1] was above 1000 nM; in experiment [2], above 10000 nM; in experiment [3] it was above 1000 nM; at PRMT5 [4], above 500 nM; at PRMT5 [5], above 500 nM; on PRMT5 [6] it was above 500 nM.

Consider `Cc1cc(NC(=O)C(=O)N2C[C@H](C)CC[C@H]2c2ccc3c(cnn3CCN(C)C)c2)cnc1N` (single isomer, unassigned) [Compound 1182], for which the IC50 was below 100 nM in experiment [1]; below 1000 nM in experiment [2]; below 100 nM in experiment [3]; below 50 nM at PRMT5 [4]; below 50 nM on PRMT5 [5]; below 50 nM on PRMT5 [6]. Further, the MTAP intact/deleted ratio entry in experiment [3] was “B (an IC50 ratio greater than or equal to 3 fold but lower than 10 fold)”.

Turning to `CCc1cc(NC(=O)C(=O)N2C[C@@H](C)CC[C@@H]2c2ccc3sc([C@H](C)N(C)C)nc3c2)cnc1N` (single isomer, unassigned) [Compound 1188], the IC50 in experiment [1] is below 100 nM; in experiment [2], below 1000 nM; in experiment [3] it was below 100 nM; on PRMT5 [4], below 50 nM; on PRMT5 [5] it was 50 to 500 nM; on PRMT5 [6], below 50 nM. Also, the MTAP intact/deleted ratio entry in experiment [3] was “A (an IC50 ratio greater than or equal to 10 fold)”.

In the case of `Cc1cc(NC(=O)C(=O)N2C[C@H](C)[C@H](CC(C)C)C[C@H]2c2ccc3scnc3c2)cnc1N` (single isomer, unassigned) [Compound 1190], the IC50 in experiment [1] is 100 to 1000 nM; in experiment [2], below 1000 nM; in experiment [3], below 100 nM; at PRMT5 [4] it was below 50 nM; on PRMT5 [5], 50 to 500 nM; on PRMT5 [6], below 50 nM. Moreover, the MTAP intact/deleted ratio result in experiment [3] is “A (an IC50 ratio greater than or equal to 10 fold)”.

Consider `Cc1cc(NC(=O)C(=O)N2C[C@H](C)CC[C@H]2c2cc(F)c3[nH]ncc3c2)cnc1N` (single isomer, unassigned) [Compound 1191], for which the IC50 in experiment [1] is above 1000 nM; in experiment [2], above 10000 nM; in experiment [3], above 1000 nM; at PRMT5 [4] it was above 500 nM; at PRMT5 [5], above 500 nM; at PRMT5 [6] it was above 500 nM.

With `Cc1cc(NC(=O)C(=O)N2C[C@H](C)CC[C@H]2c2ccc(N3CCN(C)CC3)cc2)cnc1N` (single isomer, unassigned) [Compound 1193], the IC50 in experiment [1] is above 1000 nM; in experiment [2], above 10000 nM; in experiment [3], above 1000 nM; at PRMT5 [4], above 500 nM; at PRMT5 [5], above 500 nM; at PRMT5 [6], above 500 nM.

Take `CCc1cc(NC(=O)C(=O)N2C[C@@H](C)CC[C@@H]2c2ccc3sc(CCN(C)C)nc3c2)cnc1N` (single isomer, unassigned) [Compound 1196]: the IC50 in experiment [1] was below 100 nM; in experiment [2], below 1000 nM; in experiment [3] it was below 100 nM; on PRMT5 [4], below 50 nM; at PRMT5 [5] it was below 50 nM; at PRMT5 [6] it was below 50 nM. In experiment [3], the MTAP intact/deleted ratio result is “A (an IC50 ratio greater than or equal to 10 fold)”.

Regarding `CCc1cc(NC(=O)C(=O)N2C[C@@H](C)CC[C@@H]2c2ccc(N3CC[C@H]4CCN(C)C[C@H]4C3)cc2)cnc1N` (single isomer, unassigned) [Compound 1204], the IC50 in experiment [1] is 100 to 1000 nM; in experiment [2], below 1000 nM; in experiment [3] it was below 100 nM; on PRMT5 [4] it was below 50 nM; on PRMT5 [5], 50 to 500 nM; on PRMT5 [6] it was below 50 nM. The MTAP intact/deleted ratio result in experiment [3] is recorded as “A (an IC50 ratio greater than or equal to 10 fold)”.

In the case of `C[C@H]1CC[C@H](c2ccc3cncn3c2)N(C(=O)C(=O)Nc2cnc(N)c(C3CC3)c2)C1` (single isomer, unassigned) [Compound 1205, N-(6-amino-5-cyclopropylpyridin-3-yl)-2-(2-(imidazo[1,5-a]pyridin-6-yl)-5-methylpiperidin-1-yl)-2-oxoacetamide], the IC50 in experiment [1] is 100 to 1000 nM; in experiment [2], below 1000 nM; in experiment [3] it was below 100 nM; at PRMT5 [4], below 50 nM; at PRMT5 [5], below 50 nM; on PRMT5 [6], below 50 nM. Besides, the MTAP intact/deleted ratio entry in experiment [3] is “A (an IC50 ratio greater than or equal to 10 fold)”.

`C[C@H]1CN(C(=O)C(=O)Nc2cnc(N)c(C3CC3)c2)[C@H](c2ccc3scnc3c2)CC1(F)F` (single isomer, unassigned) [Compound 1207]: the IC50 was 100 to 1000 nM in experiment [1]; below 1000 nM in experiment [2]; below 100 nM in experiment [3]; 50 to 500 nM at PRMT5 [4]; 50 to 500 nM at PRMT5 [5]; 50 to 500 nM on PRMT5 [6]. The MTAP intact/deleted ratio entry in experiment [3] was “A (an IC50 ratio greater than or equal to 10 fold)”.

As for `CCc1cc(NC(=O)C(=O)N2C[C@@H](C)CC[C@@H]2c2ccc(N3CCN(C(C)C)CC3)cc2)cnc1N` (single isomer, unassigned) [Compound 1208], the IC50 was 100 to 1000 nM in experiment [1]; below 1000 nM in experiment [2]; below 100 nM in experiment [3]; below 50 nM at PRMT5 [4]; 50 to 500 nM on PRMT5 [5]; below 50 nM on PRMT5 [6]. In experiment [3], the MTAP intact/deleted ratio entry is “A (an IC50 ratio greater than or equal to 10 fold)”.

Regarding `Cc1cc(NC(=O)C(=O)N2C[C@H](C)[C@@H](CC(C)C)C[C@H]2c2ccc3scnc3c2)cnc1N` (single isomer, unassigned) [Compound 1210], the IC50 was above 1000 nM in experiment [1]; 1000 to 10000 nM in experiment [2]; 100 to 1000 nM in experiment [3]; 50 to 500 nM on PRMT5 [4]; 50 to 500 nM at PRMT5 [5]; below 50 nM at PRMT5 [6].

Take `COCc1nc2cc([C@H]3CC[C@H](C)CN3C(=O)C(=O)Nc3cnc(N)c(C)c3)ccc2s1` (single isomer, unassigned) [Compound 1211]: the IC50 in experiment [1] was below 100 nM; in experiment [2], below 1000 nM; in experiment [3] it was below 100 nM; at PRMT5 [4] it was 50 to 500 nM; at PRMT5 [5], 50 to 500 nM; on PRMT5 [6], below 50 nM. The MTAP intact/deleted ratio entry in experiment [3] was “A (an IC50 ratio greater than or equal to 10 fold)”.

As to `Cc1cc(NC(=O)C(=O)N2C[C@@H](C)[C@@H](OC(F)(F)F)C[C@@H]2c2ccc(F)cc2)cnc1N` (single isomer, unassigned) [Compound 1213], the IC50 was 100 to 1000 nM in experiment [1]; below 1000 nM in experiment [2]; below 100 nM in experiment [3]; below 50 nM on PRMT5 [4]; 50 to 500 nM at PRMT5 [5]; below 50 nM at PRMT5 [6]. Moreover, the MTAP intact/deleted ratio result in experiment [3] is listed as “A (an IC50 ratio greater than or equal to 10 fold)”.

As for `C[C@@H]1CC[C@@H](c2ccc3sc(CCN(C)C)nc3c2)N(C(=O)C(=O)Nc2cnc(N)c(C3CC3)c2)C1` (single isomer, unassigned) [Compound 1218], the IC50 in experiment [1] is below 100 nM; in experiment [2] it was below 1000 nM; in experiment [3], below 100 nM; at PRMT5 [4], below 50 nM; on PRMT5 [5], below 50 nM; on PRMT5 [6] it was below 50 nM. For the same compound, in experiment [3], the MTAP intact/deleted ratio result was “A (an IC50 ratio greater than or equal to 10 fold)”.

As to `Cc1cc(NC(=O)C(=O)N2C[C@@H](C)CC[C@@H]2c2cccc(N3CCN(C)CC3)c2)cnc1N` (single isomer, unassigned) [Compound 1229], the IC50 was below 100 nM in experiment [1]; below 1000 nM in experiment [2]; below 100 nM in experiment [3]; below 50 nM at PRMT5 [4]; below 50 nM at PRMT5 [5]; below 50 nM at PRMT5 [6]. In experiment [3], the MTAP intact/deleted ratio entry was “B (an IC50 ratio greater than or equal to 3 fold but lower than 10 fold)”.
